Laboratory results as given in patent US20050085463A1 (priority 2003, published 2005).
Read-outs that look alike come from different tables or passages of the source.

Assays:
[1] = steady state kinetics in humans (ref. 13); cited from earlier work
D3 dopamine receptor = D3 dopamine receptor (Homo sapiens, UniProt P35462); details: R-SAT; nr = no significant antagonist or inverse agonist activity up to 1 μM; nr* = nr but significant agonist activity
5HT1B receptors = 5HT1B receptors (Homo sapiens, UniProt P28222); test: Ligand binding screen at 10 μM
[2] = Pharmacokinetics after i.v. or oral dose in dogs; format: in vivo, beagle dogs; details: dog; for concentration at 2 min / concentration at 5 min / concentration at 10 min / concentration at 30 min / concentration at 60 min / concentration at 120 min / concentration at 180 min / concentration at 240 min / concentration at 360 min: plasma; for bioavailability: NDMC p.o. 10 mg/kg vs i.v. 1 mg/kg, read-out: BA (oral bioavailability)
5-HT7A receptor = 5-HT7A receptor (Homo sapiens, UniProt P34969); test: R-SAT inverse agonist assay
[3] = beagle, iv, 1 mg/kg, Plasma concentration after NDMC administration, NDMC i.v. 1 mg/kg
[4] = beagle, iv, 1 mg/kg, Plasma concentration of compound measured after clozapine administration, clozapine i.v. 1 mg/kg
[5] = beagle, po, 10 mg/kg, Plasma concentration after NDMC administration, NDMC p.o. 10 mg/kg
[6] = beagle, po, 10 mg/kg, Plasma concentration of compound measured after clozapine administration, clozapine p.o. 10 mg/kg

Sequence of D3 dopamine receptor (P35462 whole entry): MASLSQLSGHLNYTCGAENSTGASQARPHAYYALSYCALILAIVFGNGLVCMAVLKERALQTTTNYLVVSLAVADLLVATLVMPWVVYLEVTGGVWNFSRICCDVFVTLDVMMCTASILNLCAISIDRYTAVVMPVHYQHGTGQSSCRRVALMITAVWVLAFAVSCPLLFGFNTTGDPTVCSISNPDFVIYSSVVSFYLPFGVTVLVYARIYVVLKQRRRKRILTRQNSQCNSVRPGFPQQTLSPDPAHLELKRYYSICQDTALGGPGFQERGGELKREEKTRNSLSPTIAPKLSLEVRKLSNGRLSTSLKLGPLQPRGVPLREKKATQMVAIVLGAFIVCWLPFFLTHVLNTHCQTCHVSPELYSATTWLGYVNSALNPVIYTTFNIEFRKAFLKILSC
Sequence of 5-HT7A receptor (P34969 1-445 isoform P34969-2): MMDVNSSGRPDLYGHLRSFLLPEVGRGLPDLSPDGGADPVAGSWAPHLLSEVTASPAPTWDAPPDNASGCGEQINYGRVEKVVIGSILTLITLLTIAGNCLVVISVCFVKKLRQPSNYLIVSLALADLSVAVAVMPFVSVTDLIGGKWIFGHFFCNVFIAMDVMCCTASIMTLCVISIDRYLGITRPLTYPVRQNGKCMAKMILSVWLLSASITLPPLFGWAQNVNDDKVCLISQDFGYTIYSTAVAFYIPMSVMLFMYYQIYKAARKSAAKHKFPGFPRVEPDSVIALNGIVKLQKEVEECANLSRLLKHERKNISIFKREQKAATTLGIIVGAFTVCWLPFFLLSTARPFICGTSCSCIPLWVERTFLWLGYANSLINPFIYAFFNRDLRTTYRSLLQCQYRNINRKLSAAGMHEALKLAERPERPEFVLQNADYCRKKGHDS
Sequence of 5HT1B receptors (P28222 whole entry): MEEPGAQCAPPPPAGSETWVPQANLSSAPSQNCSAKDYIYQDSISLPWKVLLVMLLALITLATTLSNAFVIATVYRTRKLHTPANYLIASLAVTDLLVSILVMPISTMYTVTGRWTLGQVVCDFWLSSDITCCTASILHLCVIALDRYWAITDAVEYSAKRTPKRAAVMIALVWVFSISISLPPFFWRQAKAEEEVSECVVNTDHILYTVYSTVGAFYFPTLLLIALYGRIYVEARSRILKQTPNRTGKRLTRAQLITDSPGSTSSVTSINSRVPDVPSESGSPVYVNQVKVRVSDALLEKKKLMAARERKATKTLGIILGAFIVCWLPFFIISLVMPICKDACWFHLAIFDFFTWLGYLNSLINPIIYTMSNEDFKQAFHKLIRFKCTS

Clc1ccc2c(c1)N=C(N1CCNCC1)c1ccccc1N2 [NDMC, 8-chloro-11-(1-piperazinyl)-5H-dibenzo [b,e][1,4] diazepine]
share of total serum clozapine concentrations [1]: 40-75%
pKi D3, competitive antagonist (D3 dopamine receptor): nr and nr^
inhibition at 10 µM (5HT1B receptors): ≥ 90%
concentration at 2 min [2, 3]: 182 ng/mL
concentration at 5 min [2, 3]: 73 ± 22 ng/mL
concentration at 10 min [2, 3]: 50 ± 10 ng/mL
concentration at 30 min [2, 3]: 35 ± 2 ng/mL
concentration at 60 min [2, 3]: 32 ± 6 ng/mL
concentration at 120 min [2, 3]: 28 ± 4 ng/mL
concentration at 180 min [2, 3]: 27 ± 7 ng/mL
concentration at 240 min [2, 3]: 27 ± 4 ng/mL
concentration at 2 min [2, 4]: 0.54 ± 0.12 ng/mL
concentration at 5 min [2, 4]: 0.47 ± 0.06 ng/mL
concentration at 10 min [2, 4]: 0.64 ± 0.26 ng/mL
concentration at 30 min [2, 4]: 1.72 ± 0.75 ng/mL
concentration at 60 min [2, 4]: 3.55 ± 1.03 ng/mL
concentration at 120 min [2, 4]: 4.31 ± 1.34 ng/mL
concentration at 180 min [2, 4]: 4.89 ± 1.41 ng/mL
concentration at 240 min [2, 4]: 4.44 ± 1.31 ng/mL
concentration at 10 min [2, 5]: 1 ng/mL
concentration at 30 min [2, 5]: 14 ± 12 ng/mL
concentration at 60 min [2, 5]: 67 ± 37 ng/mL
concentration at 120 min [2, 5]: 155 ± 95 ng/mL
concentration at 180 min [2, 5]: 249 ± 44 ng/mL
concentration at 240 min [2, 5]: 274 ± 44 ng/mL
concentration at 360 min [2, 5]: 261 ng/mL
concentration at 10 min [2, 6]: 0 ng/mL
concentration at 30 min [2, 6]: 2.45 ng/mL
concentration at 60 min [2, 6]: 25.4 ng/mL
concentration at 120 min [2, 6]: 5.8 ng/mL
concentration at 180 min [2, 6]: 10.3 ng/mL
concentration at 240 min [2, 6]: 19.2 ng/mL
concentration at 360 min [2, 6]: 46.7 ng/mL
AUC ([2]; beagle, serum, iv, 1 mg/kg): 135 ± 21.3 ng·h/mL
Cmax ([2]; beagle, serum, iv, 1 mg/kg): 353 ng/mL
Vd ([2]; beagle, serum, iv, 1 mg/kg): 28.2 ± 4.92 L/kg
half-life ([2]; beagle, serum, iv, 1 mg/kg): 13.2 ± 7 h
bioavailability ([2]; beagle, serum, oral, 10 mg/kg): ~44%
AUC ([2]; beagle, serum, po, 10 mg/kg): 598 ± 112 ng·h/mL
Cmax ([2]; beagle, serum, po, 10 mg/kg): 286 ng/mL
Tmax ([2]; beagle, serum, po, 10 mg/kg): 3.3 ± 1.2 h
bioavailability ([2]; beagle, serum, po, 10 mg/kg): 44%
time by which Cmax was achieved ([2]; after NDMC p.o. 10 mg/kg): ≤ 3.3 h
peak NDMC levels as share of peak clozapine levels ([2]; after clozapine): approximately 16%
EC50 (5-HT7A receptor): 0.0501 µM
pEC50 5HT7A, inverse agonist (5-HT7A receptor; R-SAT, nr = no significant antagonist or inverse agonist activity up to 1 μM): 7.3 ± 0.1
